Where a SMILES comes first, the peptide text is derived from it. The star is where a group is joined. X1 = CCCCCCCCCCCCCCNC(=O)OC[C@H](C*)OC(=O)NCCCCCCCCCCCCCC; Palmitoyl = CCCCCCCCCCCCCCCC(=O)*

In one assay the test system is CD11b^+ cDCs. Description: Cytokine production by purified CD11b+ cDCs (ELISA). In kind it is cell-based, mice. Particulars: 200 nM, GM-CSF 20 ng/mL, 24 h, compared with CpG 20 nM. On the procedure:
Splenic DCs (5 × 10^5 cells/mL) were stimulated by Pam3 (200 nM), SUP3 (200 nM), or CpG ODN 1668 (20 nM; Adipogen IAX-200-001) in the GM-CSF (20 ng/mL) supplemented medium for indicated periods. Cell culture supernatants were harvested at indicated time points and stored at −40°C. RAW 264.7 cells and GMDCs were stimulated by lipopolysaccharide (LPS) (20 ng/mL; Adipogen IAX-100-013), Pam3, or SUP3 (both at 200 nM) for 24 h. For in vivo administration, Pam3 (2 nmol per mouse), SUP3 (2 nmol per mouse), or LPS (1 µg per mouse) were intravenously (i.v.) injected via tail veins. Serum was obtained through tail vein bleeding and centrifuged after coagulation and stored at −40°C. Cytokines (IL-6, eBioscience 88-7064; TNFα, eBioscience 88-7324; IL-12p40, BioLegend 431604), chemokine (MIP1α, R&D Systems DY450-05), and total IgM (eBioscience, 88-50470) were quantified by ELISA kits following the instructions of manufacturers.
Figure 5 SUP3 enhanced antigen presentation ability of CD11b^+ conventional dendritic cells (cDCs) and production of antibodies against thymus-dependent (TD) antigens. […] Three days after immunization, division of OT-II CD4^+ T cells from inguinal lymph nodes were analyzed by flow cytometry (B). Absolute numbers of proliferated OT-II CD4^+ T cells were calculated in (C). […] (D) The division of OT-II cells was measured by reduced level of CFSE-labeling. […]
(In general: An ELISA detects its analyte on a solid surface through an enzyme-linked reagent.)

A further assay has as its system splenic B cells. Description: B cell activation markers in vitro. Format: cell-based, mice. Particulars: 200 nM, 2 × 10^6 cells/mL, 24 h. An excerpt: Splenic DCs were purified as described previously ([37]). CD8^+ cDCs expanded by B16-Flt3L inoculation were enriched, and then CD8^+ cDCs were positively sorted by MACS technology (Miltenyi Biotec). Splenic B cells were purified through negative selection by Streptavidin-MicroBeads (Miltenyi Biotec 130-048-102) combined with different antibodies cocktail to exclude non-B cells. The antibodies cocktail was composed of biotinylated antibodies against CD4 (T cells and DCs) (eBioscience, clone GK1.5), CD8 (T cells and DCs) (eBioscience, clone 53-6.7), CD43 (T cells, monocytes, granulocytes) (eBioscience, clone eBioR2/60), and Ter119 (erythrocytes) (eBioscience, clone TER119). B cells were further purified through MACS LS column (Miltenyi Biotec 130-042-401).
Figure 7 SUP3 promoted stronger B cell activation in vitro. Purified splenic B cells (2 × 10^6 cells/mL) were treated with SUP3 (200 nM), Pam3 (200 nM), or lipopolysaccharide (LPS) (1.5 µg/mL), respectively. (A) Surface CD25, CD40, and CD86 were stained 24 h post-stimulation. (B) Supernatants were harvested 3 or 5 days post-stimulation, and total IgM in the supernatant was determined by ELISA. Representative data was from two independent experiments with triplicated wells in each group (**p < 0.01).

As to Pam3CSK4 [reference compound], the “IL-6, TNFα, and MIP1α production by CD11b+ cDCs” value with CD11b^+ cDCs was “lower level”. In addition, the “CD25, CD40, and CD86 on B lymphocytes” value with splenic B cells is “marked upregulation”.

Regarding `CCCCCCCCCCCCCCCC(=O)N[C@@H](CSC[C@@H](COC(=O)NCCCCCCCCCCCCCC)OC(=O)NCCCCCCCCCCCCCC)C(=O)NCC(=O)N[C@@H](CCCCN)C(=O)N[C@@H](CCCCN)C(=O)N[C@@H](CCCCN)C(=O)O` [SUP3, (2S,5S,8S,14R,18R)-2,5,8-tris(4-aminobutyl)-4,7,10,13,21-pentaoxo-14-palmitamido-18-((tetradecylcarbamoyl)oxy)-20-oxa-16-thia-3,6,9,12,22-pentaazahexatriacontan-1-oic acid] (Palmitoyl-C(X1)GKKK-OH), the “IL-6, TNFα, and MIP1α production by CD11b+ cDCs” value in the assay with CD11b^+ cDCs was “lower level”. Further, the “CD25, CD40, and CD86 on B lymphocytes” value in the assay on splenic B cells is “marked upregulation”.

The values are drawn from article PMC5318439, “The Novel Toll-Like Receptor 2 Agonist SUP3 Enhances Antigen Presentation and T Cell Activation by Dendritic Cells” (Frontiers in Immunology, 2017).
